Laboratory results from patent publication US9745261B2, “Inhibitors of the MITF molecular pathway” (THE GENERAL HOSPITAL CORPORATION, priority 2013, dated 2017).

Legend:
DCT = test: qPCR assay for DCT expression in SK-MEL-5 cells; format: cell-based; details: Homo sapiens; SK-MEL-5 melanoma cells, up to 35 μM
A375 cells = test: A-375 cell cytotoxicity assay (CellTiter-Glo); format: cell-based, human; details: Homo sapiens, A-375; 24 hours, CellTiter-Glo; read-out: Antitarget Potency IC50 (μM) A375
Protocol: A375 cells were treated with compounds for 24 hours, and then cell viability was measured using the CellTiter-Glo Assay (Promega), a luciferase-based reagent that measures cellular ATP levels. The compounds were tested at different concentrations to determine IC50 values. Compounds that were active in the primary assay and were not toxic below 30 μM at 24 hours were considered for probe development. Data were normalized against DMSO in Genedata Screener's Assay Analyzer.
A-375 cells were maintained in DMEM (10% FBS, 1% Pen-Strep-Glutamine). Cells were fluid changed every 3 days and/or split upon reaching 90% confluency. For secondary assays, cells were thawed at 2 million cells per Falcon T175 flask. After 3 days, cells were passed to a Corning Triple flask (6-8 million cells) and plated after 3 days in the triple flask.
Day 1 • 1. Plate A-375 cells at 3,000 per well in 30 uL media (phenol red free DMEM/10% Fetal Bovine Serum/Penicillin/Streptomycin/L-Glutamine) • 2. Use Corning white 384-well, square, opaque-bottomed plates (Corning Catalog No. 8867BC)
Day 2 • 3. Pin 100 nL compound/DMSO solution (Cybi Well) into assay plates. (For HTS, required sentinel pinning with the positive control, parthenolide (6 mM)) • 4. Incubate 24 hours at 37° C. in Liconic incubator.
Day 3 • 5. […] Read on the Perkin-Elmer EnVision plate reader with luminescence (LUM) settings for 0.1 sec per well. […]

TRPM-1 promoter = test: SK-MEL-5 TRPM-1 luciferase reporter (TRPM-1 promoter activity assay); format: cell-based; details: Homo sapiens; SK-MEL-5 TRPM-1:luc cells, 24 hours, SteadyGlo; read-out: Target Potency IC50 (μM) TRPM1
Protocol: The TRPM1 luciferase promoter construct was transfected into the SK-MEL-5 melanoma cell line and a stable cell line was generated. This promoter is exquisitely sensitive to MITF over-expression and suppression and contains three canonical E-box motifs within the cloned promoter fragment (17). On day 0, cells were plated at 2,000 cells per well into white, opaque 384 well plates in phenol red-free media. On day 1, cells were treated with compounds or positive control for 24 hours. On day 2, 20 uL of SteadyGlo (Promega) was added per well and luminescence signal was determined with the Perkin-Elmer EnVision plate reader. Primary HTS data were analyzed in Genedata Screener Assay Analyzer. All values were normalized against DMSO treated samples and the positive control (18 μM parthenolide, CID 6473881). For the HTS, the average of two replicates was used to rank order activity and to choose compounds for retests. For dose studies, percent (%) activity was determined for each concentration and the concentration response curves (CRCs) were generated with Genedata Screener's Condoseo.
SK-MEL-5/TRPM1Luc cells were maintained in DMEM (10% FBS, 1% Pen-Strep-Glutamine, 250 ug/mL Hygromycin). […]
Day 3 • 5. […] Read on the Perkin-Elmer EnVision plate reader with ultra-sensitive luminescence (US LUM) settings for 0.5 sec per well SK-MEL-5 Cytotoxicity Assay (2084-02)

Bradykinin B2 = molecular target: T1, Bradykinin B2 (Homo sapiens, UniProt P30411); test: Radioligand binding, Bradykinin B2
T1 construct: Eurofins Panlabs, Inc. (contract assay)

Dopamine D4.2 = molecular target: T2, Dopamine D4.2 (Homo sapiens, UniProt P21917, DEL265-296); test: Radioligand binding, Dopamine D4.2
T2 construct: Eurofins Panlabs, Inc. (contract assay)

Adenosine A1 = molecular target: T3, Adenosine A1 (Homo sapiens, UniProt P30542); test: Radioligand binding, Adenosine A1
T3 construct: Eurofins Panlabs, Inc. (contract assay) 200510 (assay number)

Histamine H2 = molecular target: T4, Histamine H2 (Homo sapiens, UniProt P25021); test: Radioligand binding, Histamine H2
T4 construct: Eurofins Panlabs, Inc

[1] = molecular target: T5, Transporter, Dopamine (DAT) (Homo sapiens, UniProt Q01959); test: Radioligand binding, Transporter, Dopamine (DAT)
T5 construct: Eurofins Panlabs

[2] = molecular target: T6, Serotonin (5-Hydroxytryptamine) 5-HT2B (Homo sapiens, UniProt P41595); test: Radioligand binding, Serotonin (5-Hydroxytryptamine) 5-HT2B
T6 construct: Eurofins Panlabs

Adrenergic α1A = molecular target: T7, Adrenergic α1A (Rattus norvegicus, UniProt P43140); test: Radioligand binding, Adrenergic α1A
T7 construct: Eurofins Panlabs, Inc. (contract assay) 203100 (assay number)

Sigma σ1 = molecular target: T8, Sigma σ1 (Homo sapiens, UniProt Q99720); test: Radioligand binding, Sigma σ1
T8 construct: Eurofins Panlabs

Histamine H3 = molecular target: T9, Histamine H3 (Homo sapiens, UniProt Q9Y5N1); test: Radioligand binding, Histamine H3
T9 construct: Eurofins Panlabs, Inc

Histamine H1 = molecular target: T10, Histamine H1 (Homo sapiens, UniProt P35367); test: Radioligand binding, Histamine H1
T10 construct: Eurofins Panlabs, Inc
T10 sequence (P35367 whole entry): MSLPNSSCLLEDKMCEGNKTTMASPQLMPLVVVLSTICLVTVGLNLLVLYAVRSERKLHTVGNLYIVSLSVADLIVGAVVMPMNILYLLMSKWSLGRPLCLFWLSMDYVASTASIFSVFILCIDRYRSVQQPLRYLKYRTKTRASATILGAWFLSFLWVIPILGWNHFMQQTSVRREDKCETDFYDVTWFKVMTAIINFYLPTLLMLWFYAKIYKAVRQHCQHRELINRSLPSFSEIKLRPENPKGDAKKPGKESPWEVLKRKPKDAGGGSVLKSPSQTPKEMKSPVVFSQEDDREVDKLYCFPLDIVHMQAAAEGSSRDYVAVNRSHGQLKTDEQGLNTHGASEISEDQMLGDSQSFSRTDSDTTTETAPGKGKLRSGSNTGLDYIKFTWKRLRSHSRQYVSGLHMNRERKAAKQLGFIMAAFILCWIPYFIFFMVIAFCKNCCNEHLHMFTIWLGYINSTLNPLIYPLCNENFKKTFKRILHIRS

T3 sequence (P30542 whole entry): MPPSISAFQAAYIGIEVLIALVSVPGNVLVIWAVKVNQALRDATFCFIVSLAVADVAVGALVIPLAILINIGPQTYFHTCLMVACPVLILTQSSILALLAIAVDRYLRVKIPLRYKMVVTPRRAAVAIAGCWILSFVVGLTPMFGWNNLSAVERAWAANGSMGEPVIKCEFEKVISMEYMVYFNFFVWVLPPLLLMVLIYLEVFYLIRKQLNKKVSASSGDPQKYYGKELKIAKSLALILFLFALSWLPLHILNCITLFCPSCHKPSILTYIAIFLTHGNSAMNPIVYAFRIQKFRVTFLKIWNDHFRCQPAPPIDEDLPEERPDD
T9 sequence (Q9Y5N1 whole entry): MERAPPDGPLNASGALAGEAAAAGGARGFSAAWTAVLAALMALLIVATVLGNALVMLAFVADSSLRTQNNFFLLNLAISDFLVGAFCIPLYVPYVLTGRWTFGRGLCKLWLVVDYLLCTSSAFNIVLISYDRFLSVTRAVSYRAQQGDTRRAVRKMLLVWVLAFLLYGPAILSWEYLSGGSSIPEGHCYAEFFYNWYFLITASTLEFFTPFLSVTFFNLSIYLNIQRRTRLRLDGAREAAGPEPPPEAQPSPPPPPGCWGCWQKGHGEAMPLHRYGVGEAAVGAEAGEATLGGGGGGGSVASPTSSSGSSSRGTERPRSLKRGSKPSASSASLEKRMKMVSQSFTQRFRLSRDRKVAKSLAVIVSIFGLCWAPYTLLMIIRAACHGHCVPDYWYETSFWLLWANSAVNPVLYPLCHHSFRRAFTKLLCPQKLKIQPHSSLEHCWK
T1 sequence (P30411 whole entry): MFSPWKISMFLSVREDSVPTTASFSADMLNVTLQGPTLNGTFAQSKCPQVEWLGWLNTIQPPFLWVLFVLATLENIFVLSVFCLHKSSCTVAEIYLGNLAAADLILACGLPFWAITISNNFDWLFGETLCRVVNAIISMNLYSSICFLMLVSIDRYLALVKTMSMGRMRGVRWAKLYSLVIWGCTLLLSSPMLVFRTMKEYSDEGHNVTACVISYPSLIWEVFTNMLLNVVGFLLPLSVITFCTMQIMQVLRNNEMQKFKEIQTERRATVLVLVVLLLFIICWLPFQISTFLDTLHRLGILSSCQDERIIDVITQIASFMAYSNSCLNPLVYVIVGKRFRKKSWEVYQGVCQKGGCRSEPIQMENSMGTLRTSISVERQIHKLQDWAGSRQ
T4 sequence (P25021 whole entry): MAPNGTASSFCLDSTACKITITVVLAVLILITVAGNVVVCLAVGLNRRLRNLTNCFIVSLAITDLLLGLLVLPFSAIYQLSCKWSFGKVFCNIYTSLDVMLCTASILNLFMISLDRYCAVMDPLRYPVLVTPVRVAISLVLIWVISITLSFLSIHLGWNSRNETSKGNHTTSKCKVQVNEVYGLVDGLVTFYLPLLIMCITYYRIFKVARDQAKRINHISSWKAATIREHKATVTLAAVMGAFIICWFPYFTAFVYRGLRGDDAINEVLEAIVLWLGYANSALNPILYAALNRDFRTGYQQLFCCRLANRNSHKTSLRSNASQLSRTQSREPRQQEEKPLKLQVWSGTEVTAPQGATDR
T7 sequence (P43140 whole entry): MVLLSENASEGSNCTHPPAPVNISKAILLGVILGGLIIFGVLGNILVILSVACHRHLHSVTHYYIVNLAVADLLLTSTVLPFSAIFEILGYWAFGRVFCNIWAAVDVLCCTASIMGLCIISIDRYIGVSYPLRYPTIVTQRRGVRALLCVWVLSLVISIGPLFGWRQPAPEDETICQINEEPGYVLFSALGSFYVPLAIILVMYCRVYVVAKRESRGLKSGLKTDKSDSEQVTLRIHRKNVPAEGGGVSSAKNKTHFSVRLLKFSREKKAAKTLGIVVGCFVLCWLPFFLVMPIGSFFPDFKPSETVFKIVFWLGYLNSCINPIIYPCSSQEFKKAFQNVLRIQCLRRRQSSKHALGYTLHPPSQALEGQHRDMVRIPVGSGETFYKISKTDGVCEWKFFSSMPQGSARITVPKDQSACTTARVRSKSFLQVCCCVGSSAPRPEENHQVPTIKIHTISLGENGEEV
T6 sequence (P41595 whole entry): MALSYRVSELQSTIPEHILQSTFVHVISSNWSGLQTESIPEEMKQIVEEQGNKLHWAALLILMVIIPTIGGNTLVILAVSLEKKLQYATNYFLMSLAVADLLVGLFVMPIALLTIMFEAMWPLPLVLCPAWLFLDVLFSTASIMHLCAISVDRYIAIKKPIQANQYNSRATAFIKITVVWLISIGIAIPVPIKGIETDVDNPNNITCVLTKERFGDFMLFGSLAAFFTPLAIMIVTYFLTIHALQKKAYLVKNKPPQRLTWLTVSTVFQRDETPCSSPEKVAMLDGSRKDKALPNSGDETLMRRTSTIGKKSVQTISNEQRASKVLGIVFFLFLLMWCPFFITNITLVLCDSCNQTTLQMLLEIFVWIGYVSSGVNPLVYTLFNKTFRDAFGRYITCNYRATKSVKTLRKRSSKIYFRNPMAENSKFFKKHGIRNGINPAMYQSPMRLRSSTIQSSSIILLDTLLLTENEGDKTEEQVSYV
T2 sequence (P21917 with tags, fused parts or gaps DEL265-296): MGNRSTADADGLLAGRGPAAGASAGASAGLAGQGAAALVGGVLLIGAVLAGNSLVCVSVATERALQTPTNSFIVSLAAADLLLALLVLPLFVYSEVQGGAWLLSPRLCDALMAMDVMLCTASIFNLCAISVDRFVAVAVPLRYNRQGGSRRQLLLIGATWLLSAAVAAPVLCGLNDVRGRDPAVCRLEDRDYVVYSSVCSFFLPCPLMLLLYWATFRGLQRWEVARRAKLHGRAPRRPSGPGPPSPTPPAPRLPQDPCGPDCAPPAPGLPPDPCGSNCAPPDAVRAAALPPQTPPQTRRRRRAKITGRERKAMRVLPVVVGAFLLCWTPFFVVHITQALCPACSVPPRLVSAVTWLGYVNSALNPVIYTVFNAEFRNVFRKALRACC
T8 sequence (Q99720 whole entry): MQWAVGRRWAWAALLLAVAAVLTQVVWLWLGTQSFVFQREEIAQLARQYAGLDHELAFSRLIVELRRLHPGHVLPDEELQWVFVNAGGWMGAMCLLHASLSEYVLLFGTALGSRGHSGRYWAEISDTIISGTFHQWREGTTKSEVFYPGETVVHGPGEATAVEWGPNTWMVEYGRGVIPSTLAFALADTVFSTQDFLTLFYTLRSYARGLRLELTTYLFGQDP
T5 sequence (Q01959 whole entry): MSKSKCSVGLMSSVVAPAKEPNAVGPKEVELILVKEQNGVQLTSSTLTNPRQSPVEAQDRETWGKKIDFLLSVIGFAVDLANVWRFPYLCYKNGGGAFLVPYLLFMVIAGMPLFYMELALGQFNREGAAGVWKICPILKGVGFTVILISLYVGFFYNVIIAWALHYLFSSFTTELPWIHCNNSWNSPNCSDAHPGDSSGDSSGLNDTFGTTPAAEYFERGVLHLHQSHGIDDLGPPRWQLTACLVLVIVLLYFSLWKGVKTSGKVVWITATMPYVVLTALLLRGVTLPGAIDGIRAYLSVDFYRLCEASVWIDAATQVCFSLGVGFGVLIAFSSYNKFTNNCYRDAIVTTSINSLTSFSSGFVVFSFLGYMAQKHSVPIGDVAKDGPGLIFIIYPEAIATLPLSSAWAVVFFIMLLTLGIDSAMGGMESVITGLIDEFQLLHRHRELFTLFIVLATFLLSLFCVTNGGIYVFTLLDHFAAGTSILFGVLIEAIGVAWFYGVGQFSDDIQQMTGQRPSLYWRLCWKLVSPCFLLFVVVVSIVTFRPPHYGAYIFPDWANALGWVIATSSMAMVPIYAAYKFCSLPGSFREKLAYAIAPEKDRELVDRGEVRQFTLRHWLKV

| SMILES | EC50 (DCT) [nM] | IC50 (A375 cells) [µM] | IC50 (TRPM-1 promoter) [µM] | inhibition at 10 µM (Bradykinin B2) [%] | inhibition at 10 µM (Dopamine D4.2) [%] | inhibition at 10 µM (Adenosine A1) [%] | inhibition at 10 µM (Histamine H2) [%] | inhibition at 10 µM [1] [%] | inhibition at 10 µM [2] [%] | inhibition at 10 µM (Adrenergic α1A) [%] | inhibition at 10 µM (Sigma σ1) [%] | inhibition at 10 µM (Histamine H3) [%] | inhibition at 10 µM (Histamine H1) [%] |
| --- | --- | --- | --- | --- | --- | --- | --- | --- | --- | --- | --- | --- | --- |
| NS(=O)(=O)c1ccc(NC2=CC(=O)c3ccccc3C2=O)cc1 [4-((1,4-dioxo-1,4-dihydronaphthalen-2-yl)amino)benzenesulfonamide] | 100 | > 35 | 1.2 | – | – | – | – | – | – | – | – | – | – |
| NS(=O)(=O)c1ccc(NC2=CC(=O)c3ccccc3C2=O)cc1 [Example 1, 4-((1,4-Dioxo-1,4-dihydronaphthalen-2-yl)amino)benzenesulfonamide] | – | – | – | 11 | 4 | 46 | -5 | 2 | 37 | 28 | 15 | -5 | -5 |
